One data set deals with ASK1 kinase (Homo sapiens (Human), UniProt Q99683). The data set can be described thus: ASK1 enzymatic test (TR-FRET). It counts as biochemical. Particulars: ASK1 kinase activity. On the procedure:
In this test, the fluorescence-resonance energy transfer (TR-FRET) method was used to determine the inhibition effect of the test compounds on ASK1 kinase activity, and the half maximal inhibitory concentration IC50 of the compounds on ASK1 kinase activity was obtained.
1) 1˜5 μL of ASK1 enzyme solution was added to a 384-well plate, and the final concentration of the enzyme was 0.220 nM.
2) 1˜5 μL of gradient-diluted compound solution was added.
3) 1˜5 μL of a substrate mixture containing substrate polypeptides (final concentration: 100˜5000 nM) and ATP (final concentration: 100˜1000 uM) were added.
4) The mixture was incubated at room temperature for 0.5 to 5 hours.
5) 10 μL of EDTA and test solution containing labeled antibody were added, and the plate was incubated at room temperature for 2 to 24 hours.
6) The fluorescence signal value of each well was determined by a microplate reader at about 615 nm and 665 nm.
7) The inhibition rate was calculated by the fluorescence signal value.
8) The IC50 of the compound was obtained by curve fitting according to the inhibition rate at different concentrations.
In general terms: Time-resolved FRET reads energy transfer from a long-lived donor to a nearby acceptor.

Data set [1] is described as follows: Pharmacokinetic (PK) assay in mice. It counts as in vivo. Particulars: Balb/c male mice, single intragastric administration, 5 mg/kg, plasma; for AUC(0-t) / AUC(0-inf) / half-life / MRT / Cmax: mouse, po; for AUC(0-t): read-out: Area under curve AUC0-t; for AUC(0-inf): read-out: Area under curve AUC0-∞; for half-life: read-out: Half-life t1/2 (converted); for MRT: read-out: Mean residence time MRT; for Cmax: read-out: Plasma concentration Cmax. On the procedure: 2. Pharmacokinetic (PK) Assay in Mice
The pharmacokinetic test of the preferred examples of the present invention in mice was carried out in Balb/c male mice (Shanghai Jiesijie Laboratory Animal Co., LTD).
Administration mode: single intragastric administration.
Administration dosage: 5 mg/10 ml/kg.
Formulation: 0.5% CMC-Na, ultrasonic dissolution.
Sampling points: 0.5, 1, 2, 4, 6, 8 and 24 hours after administration.
1) 0.1 mL of blood was taken from the orbit, placed in a K2EDTA tube, and centrifuged for 5˜20 min at room temperature at 1000˜3000×g to separate the plasma, which was then stored at −80° C.
2) 160 μL of acetonitrile was added to 40 μL of plasma sample for precipitation, and then the mixture was centrifuged for 5˜20 minutes at 500˜2000×g.
3) 100 μL, of processed supernatant was taken and analyzed by LC/MS/MS assay to determine the concentration of the test compound.
LC-MS/MS Assay: • Liquid chromatography condition: Shimadzu LC-20AD pump • Mass spectrometry condition: AB Sciex API 4000 mass spectrometer • Chromatographic column: phenomenex Gemiu 5 μm C18 50×4.6 mm • Mobile phase: solution A was 0.1% aqueous formic acid solution, and solution B was acetonitrile • Flow rate: 0.8 mL/min • Elution time: 0-3.5 minutes gradient elution
The main parameters were calculated using WinNonlin 6.1.

Experimental findings from US11136324B2, “Substituted imidazoles as apoptosis signal regulating kinase 1 inhibitors” (Jiangsu Hansoh Pharmaceutical Group Co., Ltd., priority 2017, dated 2021) are described below.

Sequence of ASK1 kinase (Q99683 whole entry): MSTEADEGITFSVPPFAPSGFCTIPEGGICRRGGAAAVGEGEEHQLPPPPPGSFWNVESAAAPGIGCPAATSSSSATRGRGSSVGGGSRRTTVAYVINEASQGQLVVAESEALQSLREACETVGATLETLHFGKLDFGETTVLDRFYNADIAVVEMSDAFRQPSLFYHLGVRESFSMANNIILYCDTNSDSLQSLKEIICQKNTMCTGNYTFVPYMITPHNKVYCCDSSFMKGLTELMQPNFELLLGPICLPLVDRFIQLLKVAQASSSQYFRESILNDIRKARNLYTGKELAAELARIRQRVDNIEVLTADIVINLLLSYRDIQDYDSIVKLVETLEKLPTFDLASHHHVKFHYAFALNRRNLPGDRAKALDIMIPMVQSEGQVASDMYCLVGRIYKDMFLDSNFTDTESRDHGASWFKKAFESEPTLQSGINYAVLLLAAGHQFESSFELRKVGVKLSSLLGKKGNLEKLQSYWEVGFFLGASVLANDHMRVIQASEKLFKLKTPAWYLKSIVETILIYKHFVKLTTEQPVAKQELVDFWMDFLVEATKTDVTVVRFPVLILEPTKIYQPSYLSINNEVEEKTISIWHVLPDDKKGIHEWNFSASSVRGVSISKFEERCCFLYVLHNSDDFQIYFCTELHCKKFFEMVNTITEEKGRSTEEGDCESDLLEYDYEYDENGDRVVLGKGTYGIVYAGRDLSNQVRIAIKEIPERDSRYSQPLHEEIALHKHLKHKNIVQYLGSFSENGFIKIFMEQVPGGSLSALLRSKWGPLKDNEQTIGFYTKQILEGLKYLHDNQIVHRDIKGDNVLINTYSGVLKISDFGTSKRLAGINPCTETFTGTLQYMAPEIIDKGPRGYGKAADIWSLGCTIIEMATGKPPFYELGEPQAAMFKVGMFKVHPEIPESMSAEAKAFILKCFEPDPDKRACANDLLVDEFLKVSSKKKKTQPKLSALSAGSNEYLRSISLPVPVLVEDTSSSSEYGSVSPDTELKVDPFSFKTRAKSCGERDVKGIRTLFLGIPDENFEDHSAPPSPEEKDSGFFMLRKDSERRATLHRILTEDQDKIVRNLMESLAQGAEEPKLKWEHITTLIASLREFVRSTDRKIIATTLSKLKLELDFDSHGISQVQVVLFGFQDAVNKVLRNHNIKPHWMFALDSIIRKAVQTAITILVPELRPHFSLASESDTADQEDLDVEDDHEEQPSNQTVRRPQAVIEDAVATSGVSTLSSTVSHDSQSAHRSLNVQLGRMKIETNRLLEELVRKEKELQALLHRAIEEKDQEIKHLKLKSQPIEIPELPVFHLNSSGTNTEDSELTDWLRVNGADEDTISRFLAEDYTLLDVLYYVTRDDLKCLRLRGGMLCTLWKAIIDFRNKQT

As usually defined, the IC50 is the concentration that gives 50% inhibition. A high value points to weaker potency. Broadly, the MRT is a mean duration of stay, worked out from the concentration-time curve. `COC[C@@H]1CCc2nnc(-c3cccc(NC(=O)c4cc(-n5cnc(C6CC6)c5)c(C)cc4F)n3)n21` [Example 11, (S)-5-(4-Cyclopropyl-1H-imidazol-1-yl)-2-fluoro-N-(6-(5-(methoxymethyl)-6,7-dihydro-5H-pyrrolo[2,1-c][1,2,4]triazol-3-yl)pyridin-2-yl)-4-methylbenzamide]: on ASK1 kinase, it took 10.6 nM to reach half-maximal inhibition (IC50). In data set [1], the Peak time tmax came out at 1 h, the AUC(0-t) came to 29400 ng·h/mL, the AUC(0-inf) was determined as 29400 ng·h/mL and the half-life was 1.1 h. Besides, in data set [1], the mean residence time MRT amounted to 2.1 h and the Cmax was determined as 13200 ng/mL.
On to `Cc1cc(F)c(C(=O)Nc2cccc(-c3nnc4n3[C@H](C)CC4)n2)cc1-n1cnc(C(C)C)c1` [Example 13, (R)-2-Fluoro-5-(4-isopropyl-1H-imidazol-1-yl)-4-methyl-N-(6-(5-methyl-6,7-dihydro-5H-pyrrolo[2,1-c][1,2,4]triazol-3-yl)pyridin-2-yl)benzamide], for which 2.7 nM corresponded to half-maximal inhibition against ASK1 kinase (IC50). Besides, in data set [1], the Peak time tmax was found to be 1 h, the AUC(0-t) was found to be 11700 ng·h/mL, the AUC(0-inf) is 11800 ng·h/mL and the half-life is 1 h. In data set [1], the MRT was found to be 2 h and the Cmax was 5060 ng/mL.
On to `Cc1cc(F)c(C(=O)Nc2cccc(-c3nnc4n3[C@@H](C)CC4)n2)cc1-n1cnc(C(C)C)c1` [Example 14, (S)-2-Fluoro-5-(4-isopropyl-1H-imidazol-1-yl)-4-methyl-N-(6-(5-methyl-6,7-dihydro-5H-pyrrolo[2,1-c][1,2,4]triazol-3-yl)pyridin-2-yl)benzamide], for which the half-inhibitory concentration (IC50) at ASK1 kinase amounted to 9 nM. In data set [1], the Peak time tmax is 1 h, the AUC(0-t) was determined as 21000 ng·h/mL, the AUC(0-inf) was determined as 21000 ng·h/mL and the half-life was 1.3 h. In data set [1], the mean residence time (MRT) came out at 2.8 h and the Cmax turned out to be 6150 ng/mL.
`Cc1cc(F)c(C(=O)Nc2cccc(-c3nnc4n3[C@@H](C)CC4)n2)cc1-n1cnc(C(C)(C)C)c1` [Example 16, (S)-5-(4-(tert-Butyl)-1H-imidazol-1-yl)-2-fluoro-4-methyl-N-(6-(5-methyl-6,7-dihydro-5H-pyrrolo[2,1-c][1,2,4]triazol-3-yl)pyridin-2-yl)benzamide]: the half-inhibitory concentration (IC50) at ASK1 kinase came to 4.1 nM. In data set [1], the Peak time tmax turned out to be 1 h, the AUC(0-t) was determined as 13600 ng·h/mL, the AUC(0-inf) was found to be 13900 ng·h/mL and the half-life is 1.4 h. Further, in data set [1], the MRT turned out to be 2 h and the Cmax was 6580 ng/mL.
For `Cc1cc(F)c(C(=O)Nc2cccc(-c3nnc4n3CC(C)(C)C4)n2)cc1-n1cnc(C2CC2)c1` [Example 32, 5-(4-Cyclopropyl-1H-imidazol-1-yl)-N-(6-(6,6-dimethyl-6,7-dihydro-5H-pyrrolo[2,1-c][1,2,4]triazol-3-yl)pyridin-2-yl)-2-fluoro-4-methylbenzamide], the IC50 on ASK1 kinase was 4.9 nM. In data set [1], the Peak time tmax amounted to 1 h, the AUC(0-t) amounted to 46400 ng·h/mL, the AUC(0-inf) was found to be 46400 ng·h/mL and the half-life is 2.6 h. In addition, in data set [1], the mean residence time (MRT) amounted to 3.9 h and the Cmax was determined as 10900 ng/mL.
`Cc1cc(F)c(C(=O)Nc2cccc(-c3nnc4n3CC(C)C4)n2)cc1-n1cnc(C2CC2)c1` (stereo not shown) [Example 33, 5-(4-Cyclopropyl-1H-imidazol-1-yl)-2-fluoro-4-methyl-N-(6-(6-methyl-6,7-dihydro-5H-pyrrolo[2,1-c][1,2,4]triazol-3-yl)pyridin-2-yl)benzamide]: the half-inhibitory concentration (IC50) against ASK1 kinase amounted to 7.2 nM. In addition, in data set [1], the Peak time tmax was determined as 0.5 h, the AUC(0-t) amounted to 47900 ng·h/mL, the AUC(0-inf) stood at 48600 ng·h/mL and the half-life was 4.7 h. Further, in data set [1], the mean residence time (MRT) was 5.9 h and the Cmax is 5170 ng/mL.
`Cc1cc(F)c(C(=O)Nc2cccc(-c3nnc4n3C[C@H](C)C4)n2)cc1-n1cnc(C2CC2)c1` [Example 34, (R)-5-(4-Cyclopropyl-1H-imidazol-1-yl)-2-fluoro-4-methyl-N-(6-(6-methyl-6,7-dihydro-5H-pyrrolo[2,1-c][1,2,4]triazol-3-yl)pyridin-2-yl)benzamide]: the IC50 at ASK1 kinase was determined as 5.2 nM. Moreover, in data set [1], the Peak time tmax was 1 h, the AUC(0-t) is 81100 ng·h/mL, the AUC(0-inf) came out at 81200 ng·h/mL and the half-life was 2.5 h. In data set [1], the mean residence time MRT amounted to 4.4 h and the Cmax stood at 13500 ng/mL.
In the case of `C=CC1CCc2nnc(-c3cccc(NC(=O)c4cc(-n5cnc(C6CC6)c5)c(C)cc4F)n3)n21` (stereo not shown) [Example 38, 5-(4-Cyclopropyl-1H-imidazol-1-yl)-2-fluoro-4-methyl-N-(6-(5-vinyl-6,7-dihydro-5H-pyrrolo[2,1-c][1,2,4]triazol-3-yl)pyridin-2-yl)benzamide], the IC50 at ASK1 kinase was found to be 4.1 nM. Moreover, in data set [1], the Peak time tmax worked out at 0.5 h, the AUC(0-t) turned out to be 129000 ng·h/mL, the AUC(0-inf) stood at 130000 ng·h/mL and the half-life was 2.8 h. Further, in data set [1], the MRT was found to be 5.1 h and the Cmax worked out at 19400 ng/mL.
Molecule `Cc1cc(F)c(C(=O)Nc2cccc(-c3nnc4n3C(C(F)(F)F)CC4)n2)cc1-n1cnc(C2CC2)c1` (stereo not shown) [Example 41, 5-(4-Cyclopropyl-1H-imidazol-1-yl)-2-fluoro-4-methyl-N-(6-(5-(trifluoromethyl)-6,7-di hydro-5H-pyrrolo[2,1-c][1,2,4]triazol-3-yl)pyridin-2-yl)benzamide] gave an IC50 on ASK1 kinase of 7.7 nM. Besides, in data set [1], the Peak time tmax turned out to be 1 h, the AUC(0-t) was found to be 83900 ng·h/mL, the AUC(0-inf) was found to be 83900 ng·h/mL and the half-life was 2 h. In data set [1], the MRT worked out at 4 h and the Cmax was 17100 ng/mL.
As to `Cc1cc(F)c(C(=O)Nc2cccc(-c3nnc4n3[C@H](CF)CC4)n2)cc1-n1cnc(C2CC2)c1` [Example 51, (S)-5-(4-Cyclopropyl-1H-imidazol-1-yl)-2-fluoro-N-(6-(5-(fluoromethyl)-6,7-dihydro-5H-pyrrolo[2,1-c][1,2,4]triazol-3-yl)pyridin-2-yl)-4-methylbenzamide], 4.9 nM corresponded to half-maximal inhibition at ASK1 kinase (IC50). Moreover, in data set [1], the Peak time tmax was found to be 1 h, the AUC(0-t) stood at 57200 ng·h/mL, the AUC(0-inf) is 57700 ng·h/mL and the half-life is 3.5 h. Besides, in data set [1], the mean residence time MRT is 5.8 h and the Cmax is 5890 ng/mL.
`CC[C@H]1CCc2nnc(-c3cccc(NC(=O)c4cc(-n5cnc(C6CC6)c5)c(C)cc4F)n3)n21` [Example 56, (S)-5-(4-Cyclopropyl-1H-imidazol-1-yl)-N-(6-(5-ethyl-6,7-dihydro-5H-pyrrolo[2,1-c][1,2,4]triazol-3-yl)pyridin-2-yl)-2-fluoro-4-methylbenzamide] displayed a concentration for half-maximal inhibition (IC50) on ASK1 kinase of 5 nM. Further, in data set [1], the Peak time tmax was 1 h, the AUC(0-t) worked out at 38600 ng·h/mL, the AUC(0-inf) is 42500 ng·h/mL and the half-life is 2.4 h. Moreover, in data set [1], the MRT was 3.6 h and the Cmax was 9940 ng/mL.
At ASK1 kinase, `CCC[C@@H]1CCc2nnc(-c3cccc(NC(=O)c4cc(-n5cnc(C6CC6)c5)c(C)cc4F)n3)n21` [Example 59, (R)-5-(4-Cyclopropyl-1H-imidazol-1-yl)-2-fluoro-4-methyl-N-(6-(5-propyl-6,7-dihydro-5H-pyrrolo[2,1-c][1,2,4]triazol-3-yl)pyridin-2-yl)benzamide] registered an IC50 of 2.9 nM. In data set [1], the Peak time tmax was found to be 1 h, the AUC(0-t) came out at 19700 ng·h/mL, the AUC(0-inf) is 20200 ng·h/mL and the half-life was 1.4 h. Moreover, in data set [1], the MRT was 2.3 h and the Cmax came to 7590 ng/mL.
Molecule `CCC[C@H]1CCc2nnc(-c3cccc(NC(=O)c4cc(-n5cnc(C6CC6)c5)c(C)cc4F)n3)n21` [Example 60, (S)-5-(4-Cyclopropyl-1H-imidazol-1-yl)-2-fluoro-4-methyl-N-(6-(5-propyl-6,7-dihydro-5H-pyrrolo[2,1-c][1,2,4]triazol-3-yl)pyridin-2-yl)benzamide] yielded an IC50 against ASK1 kinase of 6.6 nM. Also, in data set [1], the Peak time tmax was 1 h, the AUC(0-t) is 29000 ng·h/mL, the AUC(0-inf) amounted to 29900 ng·h/mL and the half-life was 1.3 h. In addition, in data set [1], the MRT was 2.6 h and the Cmax was 9180 ng/mL.
